Reference: patent US20090239839A1, “RECEPTOR ANTAGONIST” (TAKEDA PHARMACEUTICAL COMPANY LIMITED, priority 2003, published 2009)
Counter-ions that a name gives are not always drawn.

Key:
rat-type OT7T022 = biological target: T1, rat-type OT7T022 (Rattus norvegicus, UniProt Q9EP86); test: Binding inhibiting activity using rat-type OT7T022-expressing CHO cell membrane fraction; settings: iodine-labeled Y-RFRP-3 100 pM, membrane fraction 0.75 μg/well
T1 construct: expressed in transfected cells; host or cells: CHO cells (membrane fraction)
T1 sequence (Q9EP86 whole entry): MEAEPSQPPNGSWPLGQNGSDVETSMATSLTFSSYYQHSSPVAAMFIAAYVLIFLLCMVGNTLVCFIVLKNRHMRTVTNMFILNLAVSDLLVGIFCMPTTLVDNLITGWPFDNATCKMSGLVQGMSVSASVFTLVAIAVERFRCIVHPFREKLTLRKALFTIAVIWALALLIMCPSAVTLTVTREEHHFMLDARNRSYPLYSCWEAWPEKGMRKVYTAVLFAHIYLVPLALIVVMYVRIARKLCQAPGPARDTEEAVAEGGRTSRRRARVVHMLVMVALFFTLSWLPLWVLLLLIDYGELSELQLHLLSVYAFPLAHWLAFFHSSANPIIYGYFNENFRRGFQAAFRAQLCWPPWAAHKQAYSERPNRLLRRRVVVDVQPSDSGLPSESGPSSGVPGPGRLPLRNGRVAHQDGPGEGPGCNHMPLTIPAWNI
Description: Assessment of Binding Inhibiting Activity of Test Compound Using Rat-Type OT7T022-Expressing CHO Cell
A flask in which a rat-type OT7T022-expressing CHO cell had been cultured was washed with 5 mM EDTA/PBS, cells were peeled with 5 mM EDTA/PBS, and cells were recovered by centrifugation, suspended in 25 mL of a buffer for preparing a membrane fraction (50 mM Tris-HCl, pH 7.5, 5 mM EDTA, 0.5 mM PMSF (manufactured by Wako Pure Chemical Industries, Ltd.), […] (manufactured by Peptide Laboratory), 0.1 μg/mL pepstatin A (manufactured by Peptide Laboratory), 4 μg/mL E-64 (manufactured by Peptide Laboratory)), and homogenized on an ice using Polytron (12,000 rpm, 15 seconds×3 times). This was centrifuged in a high speed cooling centrifuge at 4° C. and 1,000 g for 10 minutes, and the supernatant was recovered. 25 mL of a buffer for preparing a membrane fraction was added to precipitates, and the supernatant was recovered by the same procedure. These supernatants were combined, subjected to a cell strainer, dispensed into tubes for a supercentrifuge, and centrifuged at 4° C. and 100,000 g for 1 hour. The pellet was suspended in a small amount of a buffer for preparing a membrane fraction, this was suspended using a Teflon (registered trade mark) homogenizer, a protein amount was measured using a part, and the remaining was dispensed, and stored at −80° C.
Using an assay buffer (50 mM Tris-HCl, pH 7.5, 5 mM EDTA, 0.5 mM PMSF, 20 μg/mL leupeptin, 0.1 μg/mL pepstatin A, 4 μg/mL E-64, 0.1% bovine serum albumin, 10 mM MgCl2), a membrane fraction of a rat-type OT7T022-expressing CHO cell was diluted to the final concentration of 0.75 μg/well, and iodine-labeled Y-RFRP-3 was diluted to the final concentration of 100 pM. Regarding a sample compound, a 10^−2M or 10^−3M stock solution was diluted with an assay buffer so that the final concentration became 10^−5M, 10^−6M, 10^−7M, 10^−8M, 10^−9M, 10^−10M or 10^−11M. For non-specific binding, hRFRP-3-8 having the final concentration of 10^−5M was prepared. Using a polypropylene 96-well plate, a prepared sample solution, a non-specific binding solution, and 50 μl of an assay buffer for total binding were dispensed, 25 μl of an iodine-labeled form diluent was added, the mixture was stirred, 25 μl of a rat-type OT7T022-expressing CHO cell membrane fraction solution was dispensed, and this was stirred, and incubated at room temperature for 1.5 hours. This was transferred to a unifilter (Perkin Elmer) pre-wetted with a washing buffer (50 mM Tris-HCl, pH 7.5) using a harvester for a 96-well plate (Packard), and this was washed with a washing buffer six times, and sufficiently dried. 50 μl of Microscinti O (Packard) was dispensed, radioactivity was measured with Top Count (Packard), and data were analyzed in a triplicate manner. Binding inhibiting activity (IC50 value) of a test compound for rat-type OT7T022 is shown in [Table 3].

human-type OT7T022 = biological target: T2, human-type OT7T022 (Homo sapiens, UniProt Q9GZQ6); test: Binding inhibiting activity using human-type OT7T022-expressing CHO cell; settings: 125I-labeled Y-RFRP-3 100 pM, membrane fraction, room temperature 1.5 hours; read-out: IC50 value (binding inhibiting rate)
T2 construct: expressed in transfected cells; host or cells: CHO cells (membrane fraction)
T2 sequence (Q9GZQ6 whole entry): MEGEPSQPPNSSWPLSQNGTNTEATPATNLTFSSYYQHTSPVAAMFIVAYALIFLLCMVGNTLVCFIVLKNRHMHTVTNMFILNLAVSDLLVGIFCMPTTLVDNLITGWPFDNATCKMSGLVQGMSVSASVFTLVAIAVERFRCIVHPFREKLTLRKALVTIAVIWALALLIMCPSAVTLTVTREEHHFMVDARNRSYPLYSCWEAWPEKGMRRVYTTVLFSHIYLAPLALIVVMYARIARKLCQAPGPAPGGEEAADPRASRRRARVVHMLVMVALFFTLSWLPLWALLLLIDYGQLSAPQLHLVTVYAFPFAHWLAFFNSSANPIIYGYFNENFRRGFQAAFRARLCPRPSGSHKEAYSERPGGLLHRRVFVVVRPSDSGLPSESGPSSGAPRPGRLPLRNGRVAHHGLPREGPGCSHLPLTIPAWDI
Description: Assessment of Binding Inhibiting Activity of Test Compound Using Human-Type OT7T022-Expressing CHO Cell
Twenty μm of a peptide (Y-RFRP-3) (sequence: Tyr-Val-Pro-Asn-Leu-Pro-Gln-Arg-Phe-amide) (0.1 mM) in which a Tyr residue had been added to a N-terminus of hRFRP-3-8 (sequence: Val-Pro-Asn-Leu-Pro-Gln-Arg-Phe-amide) having binding inhibiting activity equivalent to that of endogenous human-type RFRP-3 (hRFRP-3-28) for human-type OT7T022-expressing CHO cell and 10 μl of distilled water were mixed, 20 μl of a lactoperoxidase solution (Sigma, prepared using 0.1 M HEPES-NaOH, pH 7.0 in 10 μg/mL), 10 μl of Iodine-125 (Amersham, IMS-30, 74 MBq), and 20 μl of 0.005% hydrogen peroxide (Wako Pure Chemical Industries, Ltd.) were successively mixed therein, the mixture was allowed to stand at room temperature for 10 minutes, 600 μl of 0.1% TFA-water was added, this was separated by reverse phase HPLC, a peak of the labeled form was collected, an equivalent amount of a buffer for a binding test (50 mM TrisHCl (pH 7.5), 0.1% BSA, 5 mM EDTA, 0.5 mM PMSF, 20 μg/mL leupeptin, 0.1 μg/mL pepstatin A, […]) was added, and this was immediately stored on ice. A part thereof was 1/100 diluted, radioactivity was measured with a γ-counter, and the remaining authentic product was distributed, which was stored at −30° C.
To a 96-well microplate were added 1 μg of a membrane fraction, a compound and Y-RFRP-3 labeled with ^125I, which had been diluted with a reaction buffer (50 mM Tris-HCl, 5 mM EDTA, 0.1% BSA, 0.5 mM PMSF, 20 μg/ml leupeptin, 0.1 μg/ml pepstatin A, 4 μg/ml E-64, 10 mM MgCl2, pH 7.5), to 100 pM to react them at room temperature for 1.5 hours. For measuring non-specific binding, non-labeled Y-RFRP-3 was further added to […]. Then, a membrane fraction was transferred to a unifilter GF/C (Perkin Elmer) by filtering the reaction mixture using a cell harvester (Perkin Elmer), and this was washed with a cooled 50 mM Tris buffer (pH 7.5) five times. The filter was dried, Microsinti (Packard) was added to the filter, and radioactivity was measured with Topcount (Packard).
A binding inhibiting rate (IC50 value) of a test compound is shown in [Table 1].

ICR mouse = test: Analgesic activity in mouse, SP-it test method; format: in vivo; settings: for Chewing time: counted for 1 minute
Description: Analgesic Activity in Mouse
Analgesic activity of an RFRP receptor antagonist on provisional pain caused by intrathecal injection (it administration) of substance P (SP) was investigated. In a test, one group (10 animals) of an ICR mouse (♂), 5 week old, was used. A skin of a back of a mouse was excised under ether anesthesia and, after 3 hours or longer recovering time, substance P (SP) was dissolved in a physiological saline, and this was administered by intrathecal injection (between L5-L6) at 10 ng/5 μL/mouse. A physiological saline and the compound of Example 50 were administered by intrathecal injection as a mixed solution with substance P (SP) at a dose of 1, 3 or 10 μg/mouse. From immediately after administration, the number of alternate chewing at a lower abdomen by a mouse was counted for 1 minute, and the time was used as an index for a provisional pain reaction due to substance P (SP).

RFRP-1-administered rats = test: Inhibitory activity of increase in blood glucose and blood glucagon concentration in RFRP-1-administered rats; format: in vivo, rat

**Q.** What does the source list for `CCCCCNCCCOc1cccc([C@H]2O[C@H](CC(=O)NCc3ccccc3F)C(=O)N(CC(C)(C)C)c3ccc(Cl)cc32)c1OC` (relative stereo) [Example 4, 2-{3,5-trans-7-Chloro-1-(2,2-dimethylpropyl)-5-[2-methoxy-3-(3-(pentylamino)propoxy)phenyl]-2-oxo-1,2,3,5-tetrahydro-4,1-benzoxazepin-3-yl}-N-(2-fluorobenzyl)acetamide hydrochloride]?
**A.** IC50 (rat-type OT7T022): < 1 µM; IC50 (human-type OT7T022): < 1 µM

**Q.** Which results are given for `COc1c(OCCCNCCCc2ccccc2Cl)cccc1[C@H]1O[C@H](CC(=O)NCc2ccccc2F)C(=O)N(CC(C)(C)C)c2ccc(Cl)cc21` (relative stereo) [Example 14, trans-2-{7-Chloro-5-[3-(3-{[3-(2-chlorophenyl)propyl]amino}propoxy)-2-methoxyphenyl]-1-(2,2-dimethylpropyl)-2-oxo-1,2,3,5-tetrahydro-4,1-benzoxazepin-3-yl}-N-(2-fluorobenzyl)acetamide hydrochloride]?
**A.** IC50 (rat-type OT7T022): < 1 µM; IC50 (human-type OT7T022): < 1 µM

**Q.** `COc1c(OCCCNC/C=C/c2ccccc2)cccc1[C@H]1O[C@H](CC(=O)NCc2ccccc2F)C(=O)N(CC(C)(C)C)c2ccc(Cl)cc21` (relative stereo) [Example 18, trans-2-[7-Chloro-1-(2,2-dimethylpropyl)-5-[2-methoxy-3-(3-{[(2E)-3-phenyl-2-propenyl]amino}propoxy)phenyl]-2-oxo-1,2,3,5-tetrahydro-4,1-benzoxazepin-3-yl]-N-(2-fluorobenzyl)acetamide hydrochloride] was tested. Which IC50 (rat-type OT7T022) did it give?
**A.** The IC50 was < 1 µM.

**Q.** What about the IC50 (human-type OT7T022) of the same compound?
**A.** Its IC50 is < 1 µM.

**Q.** What does the source list for `CCCNC(=O)C[C@H]1O[C@H](c2cccc(OCCCNCCCc3ccccc3)c2OC)c2cc(Cl)ccc2N(CC(C)(C)C)C1=O` (relative stereo) [Example 46, trans-2-[7-Chloro-1-(2,2-dimethylpropyl)-5-(2-methoxy-3-{3-[(3-phenylpropyl)amino]propoxy}phenyl)-2-oxo-1,2,3,5-tetrahydro-4,1-benzoxazepin-3-yl]-N-propylacetamide hydrochloride]?
**A.** IC50 (rat-type OT7T022): < 1 µM; IC50 (human-type OT7T022): < 1 µM

**Q.** Which results are given for `COc1c(OCCCNCCCc2ccccc2)cccc1[C@H]1O[C@H](CC(=O)N2CCNCC2)C(=O)N(CC(C)(C)C)c2ccc(Cl)cc21.Cl.Cl` (relative stereo) [Example 50, trans-7-Chloro-1-(2,2-dimethylpropyl)-5-(2-methoxy-3-{3-[(3-phenylpropyl)amino]propoxy}phenyl)-3-[2-oxo-2-(1-piperazinyl)ethyl]-1,5-dihydro-4,1-benzoxazepine-2(3H)-one dihydrochloride]?
**A.** analgesic activity (pain reaction due to substance P) (ICR mouse; 1, 3 or 10 μg/mouse intrathecal): a pain reaction due to substance P (SP) is inhibited in a dose dependent manner; Chewing time (ICR mouse; dose 1 μg/mouse intrathecal with substance P 10 ng/mouse): 71.8 ± 5.1; Chewing time (ICR mouse; dose 3 μg/mouse intrathecal with substance P 10 ng/mouse): 18.6 ± 4.1; Chewing time (ICR mouse; dose 10 μg/mouse intrathecal with substance P 10 ng/mouse): 0.0 ± 0.0; decrease in the chewing time (ICR mouse; dose of 3 and 10 μg/mouse intrathecal): significant (p<0.01) decrease in the chewing time; inhibition of activity of increasing blood glucose concentration due to RFRP-1 (RFRP-1-administered rats; 5 mg/kg intravenous): inhibited significantly (p<0.01, n=4); inhibition of activity of increasing blood glucagon concentration due to RFRP-1 (RFRP-1-administered rats; 5 mg/kg intravenous, 2 minutes after administration of RFRP-1 (p<0.05)): significantly inhibited; inhibition of activity of increasing blood glucagon concentration due to RFRP-1 (RFRP-1-administered rats; 5 mg/kg intravenous, 5 minutes after administration of RFRP-1 (p<0.001)): significantly inhibited; inhibition of increase in blood glucagon concentration due to RFRP-1 (RFRP-1-administered rats; 0.2, 1 or 5 mg/kg intravenous 5 minutes before RFRP-1): inhibits increase in a blood glucagon concentration due to RFRP-1 in a dose dependent manner; inhibition of increase in blood glucose concentration due to RFRP-1 (RFRP-1-administered rats; 0.2, 1 or 5 mg/kg intravenous 5 minutes before RFRP-1, vs control group): inhibits increase in a blood glucose concentration due to RFRP-1 in a dose dependent manner; IC50 (rat-type OT7T022): < 1 µM; IC50 (human-type OT7T022): < 1 µM

**Q.** With `COc1c(OCCCNCCCc2ccccc2)cccc1[C@H]1O[C@H](CC(=O)N2CCC(O)CC2)C(=O)N(CC(C)(C)C)c2ccc(Cl)cc21` (relative stereo) [Example 85, trans-7-Chloro-1-(2,2-dimethylpropyl)-3-[2-(4-hydroxypiperidin-1-yl)-2-oxoethyl]-5-(2-methoxy-3-{3-[(3-phenylpropyl)amino]propoxy}phenyl)-1,5-dihydro-4,1-benzoxazepine-2(3H)-one hydrochloride] as the compound, how does the IC50 (rat-type OT7T022) read?
**A.** Its IC50 is < 1 µM.

**Q.** What about the IC50 (human-type OT7T022) of the same compound?
**A.** Its IC50 is < 1 µM.

**Q.** `COc1c(OCCCNCCCc2ccccc2)cccc1[C@H]1O[C@H](CC(=O)N2CCNC(C(=O)O)C2)C(=O)N(CC(C)(C)C)c2ccc(Cl)cc21` (relative stereo) [Example 86, 4-{[3,5-trans-7-Chloro-1-(2,2-dimethylpropyl)-5-(2-methoxy-3-{3-[(3-phenylpropyl)amino]propoxy}phenyl)-2-oxo-1,2,3,5-tetrahydro-4,1-benzoxazepin-3-yl]acetyl}piperazine-2-carboxylic acid dihydrochloride] was tested. Which IC50 (rat-type OT7T022) did it give?
**A.** The IC50 was < 1 µM.

**Q.** And the IC50 (human-type OT7T022)?
**A.** The IC50 was < 1 µM.
